Like-named read-outs stand apart in the source and are kept apart here. A value given as a limit tells only on which side of the number the result lay.

One data set concerns MOLM-14 xenograft tumors. In words: Western analysis / pharmacodynamics of MOLM-14 xenograft tumors. The format is in vivo, mouse. How it is done:
For tissue: Tissue was homogenized and protein was extracted using T-per Mammalian protein extraction reagent (78510, Thermo Fisher Scientific). In the pharmacodynamics study, mice bearing tumors were treated with vehicle, 10 mg/kg, 50 mg/kg and 100 mg/kg for 6 hrs. After 6 hrs of treatment, tumors were removed for further procedure.
(§1) Proteins were separated on SDS-PAGE and transferred to nitrocellulose membrane. Immunoblotting were performed using specific antibodies: phosphor-Stat1-pS727 (8826, Cell signaling), total-Stat1 (14994, Cell signaling), Phospho-Stat3 (Tyr705) (9131, Cell signaling), Stat3 (9139, Cell signaling), pSTAT5-pS726 (ab128896, abcam), stat5 (94205, cell signaling), YAP (14074, Cell signaling), CYR61(14479, Cell signaling), CTGF (ab6992, Abcam), c-Myc (13987, Cell signaling), Mcl-1 (94296, Cell signaling) and GAPDH (AM4300, Invitrogen). (FIG. 1A, FIG. 1B, FIG. 1C). MV-4-11 cancer cell line was treated with compound 29 at various concentrations (30 nM up to 10 μM) for 24 hours and 48 hours, respectively.
Tumors from the MOLM-14 xenograft study were collected and processed for western analysis. In the western results showing above, the level of p-STAT1 (Ser727) in the three mice samples from the treated group were much lower compared to that in the three mice samples from the control group.

Data set [1] relates to colorectal cancer cell line SW620. In words: Synergy experiment of Compound 29 and 2DG, cell viability. The format is cell-based. How it is done: SW620 cells were plated (96-well) in triplicate at 500 cells per well for testing (n=3) with 5 mM 2-DG and different concentrations of compound 29 (0-10 uM). Medium was changed once on day 3. On day 7, the CellTiter-Glo Luminescent Cell Viability Assay (Promega) was performed to measure the response. For cell viability assay, two independent experiments have been done.

For a further data set, the system named is MOLM-14 xenograft. In words: MOLM-14 mouse xenograft model. The format is in vivo. The note with it: 50 mg/kg orally b.i.d. How it is done: 40 athymic nude mice (Taconic Biosciences) were injected with 5×10^6 MOLM-14 cells in 50% matrigel s.c. in flank. Cell Injection Volume is 0.2 ml/mouse for MOLM-14. Age of mice at start date is 12-14 weeks. Perform a pair match when tumors grows after two weeks and begin treatment. Compound 29 was dissolved in saline and was given orally twice a day on a schedule of five days on/two days off for three weeks. Body weight and tumor size were measured every other day when mice being treated. After the last administration, mice were euthanized for tumor collection. […] In the MOLM-14 xenograft model, mice were treated with compound 29 at 50 mg/kg for 21 days (orally, b.i.d). The tumor volume from control and vehicle group was measured. […] Body weights of mice in both groups were measured and plotted.

Another data set addresses CDK8/cyclinC (Homo sapiens (Human), UniProt P49336). In words: CDK8 LanthaScreen Eu kinase binding assay. The note with it: read-out: IC50 against CDK8. How it is done:
CDK8 Enzymatic Activity Inhibition: Determination of IC50 Values for Selected Compounds
The half maximal inhibitory concentration (IC50) with respect to CDK8 inhibition was determined for the compounds of the invention by using LanthaScreen™ Eu kinase binding assay from ThermoFisher Scientific's SelectScreen™ Biochemical Kinase Profiling Service (Waltham, MA). Compounds were screened in 1% DMSO (final) in the well. For 10 point titrations, 3-fold serial dilutions were conducted from the starting concentration.
The 2×CDK8/cyclinC/Eu-anti-His mixture is prepared in kinase buffer A (50 mM HEPES pH 7.5, 0.01% BRIJ-35, 10 mM MgCl2, 1 mM EGTA). The Bar-coded, low volume, white 384-well plate (Greiner Cat. #784207) were used for the assay. 160 nL of 100× test compound in 100% DMSO, 3.84 uL of kinase buffer A, 8 uL of 2×CDK8/cyclinC/Eu-anti-His mixture, and 4 uL of 4× tracer 236 were mixed and shaked for 30 seconds. Then the Kinase Reaction was incubated at room temperature for 60 minutes. After the 1 hour Kinase Reaction incubation, the plate was read on a fluorescence plate reader (Infinite F500, Tecan Systems Inc, USA), and data was analyzed using XLfit from IDBS. The dose response curve was curve fit to model number 205 (sigmoidal dose-response model).

The next data set has as its system MV-4-11 cancer cell line. In words: Western blot of treated cells. The class given is cell-based. How it is done:
For cell lines: All cells were plated (6-well) at 5×10^5 cells per well with medium containing 1% FBS overnight. And then Compound 29 was added in different concentrations with medium containing 1% FBS. After 16 hours, cells were lysed in M-per Mammalian Protein Extraction Reagent (78501, Thermo Fisher Scientific) containing protease and phosphatase inhibitors (88669, Thermo Fisher Pierce). Total protein concentration was measured using the Pierce BCA protein Assay Kit (#23227).
as §1

Another data set relates to TG-1. In words: AML cell viability (CellTiter-Glo, day 7). The class given is cell-based. How it is done:
(§2) MV-4-11 cell (ATCC CRL-9591), RS4;11 (ATCC CRL-1873) and TG-1 (ATCC CRL1608) were acquired from ATCC. MOLM14 (ACC777) was acquired from DSMZ. All cells were plated (96-well) in triplicate at 5000 cells per well for testing (n=3) with compound. On day 3, an equal volume for all wells was split-back with fresh media and compound. On day 7, the CellTiter-Glo Luminescent Cell Viability Assay (Promega) was performed to measure the response. For cell viability assay, two independent experiments have been done.

The test system of a further data set is RS4;11. In words: AML cell viability (CellTiter-Glo, day 7). The note with it: Homo sapiens. The format is cell-based. How it is done:
as §2

The next data set concerns MV-4-11. In words: AML cell viability (CellTiter-Glo, day 7). The class given is cell-based. The conditions noted are these: Homo sapiens. How it is done: as §2
The subject of a further data set is MOLM-14. In words: AML cell viability (CellTiter-Glo, day 7). The format is cell-based. The conditions noted are these: Homo sapiens. How it is done: as §2
[2] abbreviates: tumors from MOLM-14 xenograft study, Western.

Sequence of CDK8/cyclinC (P49336 whole entry): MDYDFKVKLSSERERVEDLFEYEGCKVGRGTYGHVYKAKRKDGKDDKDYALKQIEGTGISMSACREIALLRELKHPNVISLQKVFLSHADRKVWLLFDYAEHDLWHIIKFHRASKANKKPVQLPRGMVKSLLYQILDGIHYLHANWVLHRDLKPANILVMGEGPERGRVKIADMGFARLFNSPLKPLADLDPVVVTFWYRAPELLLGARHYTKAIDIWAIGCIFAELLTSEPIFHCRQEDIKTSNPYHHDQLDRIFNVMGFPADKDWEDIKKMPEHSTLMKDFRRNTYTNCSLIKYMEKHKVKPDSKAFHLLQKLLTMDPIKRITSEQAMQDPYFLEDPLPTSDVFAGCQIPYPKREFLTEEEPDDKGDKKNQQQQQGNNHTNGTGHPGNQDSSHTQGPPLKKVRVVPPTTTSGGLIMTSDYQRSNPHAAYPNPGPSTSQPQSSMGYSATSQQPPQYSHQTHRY
Sequence of CDK8/cyclinC (P24863 whole entry partner): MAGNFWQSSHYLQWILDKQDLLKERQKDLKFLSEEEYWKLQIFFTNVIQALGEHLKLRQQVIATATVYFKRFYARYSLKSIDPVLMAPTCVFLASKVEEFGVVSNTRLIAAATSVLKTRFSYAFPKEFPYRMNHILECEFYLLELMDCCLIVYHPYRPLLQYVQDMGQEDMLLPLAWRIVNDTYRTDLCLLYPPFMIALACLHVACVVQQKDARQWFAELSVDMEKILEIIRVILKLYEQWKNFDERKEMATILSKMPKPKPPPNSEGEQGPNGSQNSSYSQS

As to `Nc1nccc2c(Br)cc3cc(C(=O)[O-])ccc3c12.[Na+]` [Compound 29, Sodium 1-amino-5-bromobenzo[h]isoquinoline-8-carboxylate], the “p-STAT1 (Ser727) in tumors, pharmacodynamics study” value in the data set with MOLM-14 xenograft tumors (10 mg/kg, 50 mg/kg and 100 mg/kg, 6 hrs) was “a dose response (10 mg/kg, 50 mg/kg and 100 mg/kg) of down regulation”. For the same compound, the “level of p-STAT1 (Ser727) in tumors vs control group” value in the data set on MOLM-14 xenograft tumors (setting [2]) is reported as “much lower”. In addition, the “level of p-STAT5(Ser726) in tumors vs control group” value in the data set with MOLM-14 xenograft tumors (setting [2]) is listed as “lower level”. Moreover, the IC50 in data set [1] (Homo sapiens, SW-620, 168 h, SW620, without 2DG, day 7, read-out: Cell viability IC50 of Compound 29 alone) is 1 to 10 µM; at CDK8/cyclinC it was under 300 nM; in the data set with TG-1 (TG1, 168 h, TG-1, day 7, read-out: Cell viability IC50), under 1000 nM; in the data set with TG-1 (TG1, TG-1, text statement, read-out: potency in cell viability assay) it was under 1000 nM; with RS4;11 (168 h, RS4;11, day 7, read-out: Cell viability IC50), under 1000 nM; in the data set with RS4;11 (RS4;11, text statement, read-out: potency in cell viability assay) it was under 1000 nM. Besides, the IC50 in the data set on MV-4-11 (MV4-11, 168 h, MV-4-11, day 7, read-out: Cell viability IC50) is under 1000 nM; in the data set on MV-4-11 (MV4-11, MV-4-11, text statement, read-out: potency in cell viability assay), under 1000 nM; in the data set on MOLM-14 (168 h, MOLM-14, day 7, read-out: Cell viability IC50), under 1000 nM; in the data set on MOLM-14 (MOLM-14, text statement, read-out: potency in cell viability assay) it was under 1000 nM. In addition, in [1] (SW620, 5 mM 2DG), the “Synergy with 2DG in viability assay” value is recorded as “synergizes with 2DG”. Moreover, the “Growth of tumors (tumor volume)” value in the data set with MOLM-14 xenograft (21 days) is listed as “greatly inhibited”. The compound further had a weight loss in the data set with MOLM-14 xenograft (during treatment) of under 5%. In addition, the “level of p-STAT1(Ser727), p-STAT3(Tyr705), p-STAT5(Ser726)” value with MV-4-11 cancer cell line (MV-4-11, 30 nM up to 10 μM, 24 hours and 48 hours) is recorded as “dose-response down regulation”. In the data set with MV-4-11 cancer cell line (MV-4-11, 48 hours), the “level of YAP, CYR61, CTGF, C-MYC, and MCL-1” value was “down regulate”.
